# Like-named read-outs stand apart in the source and are kept apart here. Marks after values point to notes of the source that are not given here.
# Key:
# [1] = test system: flower bud dieback on pear trees (Conference variety); assay: Flower bud quality field trial against flower bud dieback on young pear trees; assay type: in vivo, pear trees (Conference cultivar); settings: for Good quality buds (%) 1 yw S: 1-year old wood side position; for Good quality buds (%) 1 yw S / Good quality buds (%) 1 yw T / Good quality buds (%) 2 yw / Good quality buds (%) Per tree: treated 2004 and 2005, 2006 flower buds; for Good quality buds (%) 1 yw T: 1-year old wood terminal position; for Good quality buds (%) 2 yw: 2-year old wood
# Procedure: (§1) During three consecutive years 2004, 2005 and 2006, a trial was carried out on young pear trees of the Conference cultivar on a Quince Adams stock. The pear trees of this orchard were planted in 1999 according to the system of a single row at a planting distance of 3.5 m between the rows and 1.5 m in the row with a tree height of 3 m.
# (§2) During the 2004 trial, three products were compared in an arbitrary block design with 10 trees per plot in four repeats: the observations were made on the 8 trees inside the plot. […] The applications were in the post-flower period at an interval of 10 days.
# (§3) In 2005, the same applications were repeated on the same trees.
# In 2006, the complete trial was repeated on new trees in the same orchard. The fosetyl-Al doses varying between 2 and 3.75 kg/ha of standard orchard (corresponding to doses varying from 1.33 to 2.50 kg/ha of foliar surface area) were applied in the post-flower period during the months of May and June at an interval of 5 or 10 days between the treatments. Benzothiadiazole applied at a dose of 200 g/ha of standard orchard (corresponding to a dose of 133 g/ha of foliar surface area) was included as reference product in order to induce plant defense reactions by the trees.
# (§4) After one year during flowering, the effect of the treatments on the quality of the flower bud was evaluated. Statistical analysis of the various parameters is performed (Unistat Statistical Package, Version 5.5). The original or processed data are analyzed according to the General Linear Model and the treatment means are separated in a standard manner using the Duncan multiple classification test (5% level).
# [2] = test system: pear trees (Conference cultivar); assay: Productivity of the pear trees after the treatments (field trial); assay type: in vivo; settings: 2006, treated 2004 and 2005
# Procedure: as §1, §2, §3, §4
# [3] = flower buds 2006; for Fosetyl-Al residue: 10 days
# Source text: In 2006, the magnitude of the levels of fosetyl-Al and phosphorous acid residues in the developing flower buds was monitored on three plots: in the control untreated plot, in the plot treated with fosetyl-Al based on 3×3.75 kg/ha (application on 18/05, 30/05 and 08/06) and in the plot treated with fosetyl-Al based on 6×2.0 kg/ha (application on 18/05, 30/05, 08/06, 19/06, 29/06 and 10/07).
# On each date (with the exception of the first sampling date), 40 flower buds with their surrounding leaves were gathered. On the first sampling date, 40 flower buds were gathered without leaves.
# The flower bud samples were taken before the next treatment on the following dates: 30/05, 08/06, 19/06, 28/06, 10/07 and 28/08. For the two fosetyl-Al and phosphorous acid products, the levels of residues in the flower buds were determined with the aid of an LC-MS-MS analytical method. The limit of quantification (LOQ) was 0.1 mg/kg for fosetyl-Al, 2 mg/kg for phosphorous acid and 3 mg/kg for the total residue expressed as fosetyl-Al equivalent. The total residue is the sum of the residues derived from fosetyl-Al and phosphorous acid expressed as fosetyl-Al equivalent.
# The results are calculated according to the following formula:
# [formula] in which: • Mfosetyl-Al represents the molecular weight of fosetyl-Al: 354.1 g/mol • Mphosphorous acid represents the molecular mass of phosphorous acid: 82 g/mol; multiplied by 3, since 1 mol of fosetyl-Al corresponds to 3 mol of phosphorous acid.
# For the pear bud samples, the fosetyl-Al and phosphorous acid residues are extracted with the aid of an acetonitrile/water (50:50, v/v) mixture. After centrifugation and dilution of the sampling material, the residues are quantified by HPLC and detected by tandem mass spectrometry with electrospray ionization. The quantification is performed by external standardization. The statistical analysis is performed per parameter on the complete set of data for the different sampling dates.
# [4] = test system: pear trees (Conference cultivar); settings: plot treated at 3.75 kg/ha, 2004 treatments
# Source text: as §2, §3
# [5] = treated 2004, 2005 flower buds, 3 x dose 3 (kg/ha) May, interval 10
# [6] = treated 2004, 2005 flower buds, 3 x dose 11.25 (kg/ha) May, interval 10
# [7] = 3 x 0.2 kg/ha May interval 10 + 3 x 0.2 kg/ha June interval 14
# [8] = treated 2004, 2005 flower buds, 3 x 0.2 kg/ha May interval 10 + 3 x 0.2 kg/ha June interval 14
# [9] = treated 2006, 2007 flower buds, 3 x 0.2 kg/ha May, interval 10
# [10] = 3 x 3.75 kg/ha May interval 10 + 3 x 3.75 kg/ha June interval 14
# [11] = 3 x 3.75 kg/ha May, interval 10
# [12] = 3 x 3.75 kg/ha May, primary efflorescence
# [13] = treated 2004, 2005 flower buds, 3 x 3.75 kg/ha May interval 10 + 1 x 3.75 kg/ha AH
# [14] = treated 2004, 2005 flower buds, 3 x 3.75 kg/ha May interval 10 + 3 x 3.75 kg/ha June interval 14
# [15] = treated 2004, 2005 flower buds, 3 x 3.75 kg/ha May, interval 10
# [16] = treated 2006, 2007 flower buds, 3 x 3.75 kg/ha June, interval 10
# [17] = treated 2006, 2007 flower buds, 3 x 3.75 kg/ha May, interval 10
# [18] = treated 2006, 2007 flower buds, 6 x 2 kg/ha June, interval 5
# [19] = treated 2006, 2007 flower buds, 6 x 2 kg/ha May, interval 5
# [20] = treated 2006, 2007 flower buds, 6 x 2 kg/ha May-June, interval 10
# [21] = 3 x 3.75 kg/ha May interval 10 + 3 x 3.75 kg/ha June interval 14, object excluded from statistical analysis
compound,measurement,setting,value
potassium phosphonate,Buds of good quality,[1]; [5],89.5%
same,Number of incomplete buds/tree,[1]; [5],7.2 buds/tree
same,Buds of good quality,[1]; [6],92.4%
same,Number of incomplete buds/tree,[1]; [6],4.8 buds/tree
"c1ccc2snnc2c1 [Benzothiadiazole, benzothiadiazole]",Good quality buds (%) 1 yw S,[1]; [7],56.6%
same,Good quality buds (%) 1 yw T,[1]; [7],54.6%
same,Good quality buds (%) 2 yw,[1]; [7],58.5%
same,activity on flower bud quality,"[1]; 2004 treatments, 2005 buds, reference product",insufficient activity
same,Buds of good quality,[1]; [8],71.2%
same,Number of incomplete buds/tree,[1]; [8],22.5 buds/tree
same,Good quality buds (%) Per tree,[1]; [7],62.8%
same,Buds that have died back (%),[1]; [9],43.5%
same,Good quality buds (%),[1]; [9],44.2%
same,Number of incomplete buds/tree,[1]; [9],12.3 buds/tree
same,Average weight,[2]; [7],163.2 g
same,Number of fruits/tree,[2]; [7],113.88 fruits/tree
same,Productivity (kg/tree),[2]; [7],18.5 kg/tree
"CCO[PH](=O)O.[Al] [Fosetyl-Al, aluminum ethyl hydrogen phosphonate]",Good quality buds (%) 1 yw S,[1]; [10],68.4%
same,Good quality buds (%) 1 yw S,[1]; [11],56.5%
same,Good quality buds (%) 1 yw S,[1]; [12],69.8%
same,Good quality buds (%) 1 yw T,[1]; [10],97.2%
same,Good quality buds (%) 1 yw T,[1]; [11],82.7%
same,Good quality buds (%) 1 yw T,[1]; [12],90.2%
same,Good quality buds (%) 2 yw,[1]; [10],86.1%
same,Good quality buds (%) 2 yw,[1]; [11],75.1%
same,Good quality buds (%) 2 yw,[1]; [12],68.2%
same,flower bud quality with an additional treatment after harvesting versus post-flower treatments alone,"[1]; 2004 treatments, 2005 buds",results comparable
same,Buds of good quality,[1]; [13],88.3%
same,Number of incomplete buds/tree,[1]; [13],9.2 buds/tree
same,Buds of good quality,[1]; [14],89.3%
same,Number of incomplete buds/tree,[1]; [14],7.9 buds/tree
same,Buds of good quality,[1]; [15],88.4%
same,Number of incomplete buds/tree,[1]; [15],7.9 buds/tree
same,Good quality buds (%) Per tree,[1]; [10],92.3%
same,Good quality buds (%) Per tree,"[1]; 3 x 3.75 kg/ha May interval 10 + 3 x 3.75 kg/ha June interval 14, listed as fosetyl-Al",92%
same,Good quality buds (%) Per tree,[1]; [11],85.9%
same,Good quality buds (%) Per tree,"[1]; 3 x 3.75 kg/ha May, interval 10, listed as fosetyl-Al",86%
same,Good quality buds (%) Per tree,[1]; [12],75.4%
same,Good quality buds (%) Per tree,"[1]; 3 x 3.75 kg/ha May, primary efflorescence, listed as fosetyl-Al",75%
same,percentages of flower buds that have died back or that are incomplete,"[1]; treated 2006, 2007 buds, all objects treated with fosetyl-Al",significantly reduced
same,Buds that have died back (%),[1]; [16],31.6%
same,Good quality buds (%),[1]; [16],62.5%
same,Number of incomplete buds/tree,[1]; [16],5.9 buds/tree
same,Buds that have died back (%),[1]; [17],33.4%
same,Good quality buds (%),[1]; [17],59.3%
same,Number of incomplete buds/tree,[1]; [17],7.2 buds/tree
same,Good quality buds (%),"[1]; treated 2006, 2007 flower buds, 3 x 3.75 kg/ha May, interval 10, listed as fosetyl-Al",59%
same,Buds that have died back (%),[1]; [18],31.5%
same,Good quality buds (%),[1]; [18],63.5%
same,Number of incomplete buds/tree,[1]; [18],5 buds/tree
same,Buds that have died back (%),[1]; [19],33%
same,Good quality buds (%),[1]; [19],59.6%
same,Number of incomplete buds/tree,[1]; [19],7.4 buds/tree
same,Good quality buds (%),"[1]; treated 2006, 2007 flower buds, 6 x 2 kg/ha May, interval 5, listed as fosetyl-Al",59%
same,Buds that have died back (%),[1]; [20],33.9%
same,Good quality buds (%),[1]; [20],61.2%
same,Number of incomplete buds/tree,[1]; [20],4.9 buds/tree
same,Average weight (g),[2]; [21],137.9* g
same,Number of fruits/tree,[2]; [21],152.2* fruits/tree
same,Productivity (kg/tree),[2]; [21],21* kg/tree
same,Average weight,[2]; [11],144.8 g
same,Number of fruits/tree,[2]; [11],148.8 fruits/tree
same,Productivity (kg/tree),[2]; [11],21.5 kg/tree
same,Average weight,[2]; [12],157.7 g
same,Number of fruits/tree,[2]; [12],140.4 fruits/tree
same,Productivity (kg/tree),[2]; [12],22.1 kg/tree
same,time the level of fosetyl-Al residue was maintained after the last treatment,[3]; dose of 3.75 kg/ha,approximately 4 weeks
same,Fosetyl-Al residue,"[3]; fosetyl-Al 3 x 3.75 kg/ha May, sampling 08/06",12.92 mg/kg
same,Fosetyl-Al residue,"[3]; fosetyl-Al 3 x 3.75 kg/ha May, sampling 10/07",2.14 mg/kg
same,Fosetyl-Al residue,"[3]; fosetyl-Al 3 x 3.75 kg/ha May, sampling 19/06",10.65 mg/kg
same,Fosetyl-Al residue,"[3]; fosetyl-Al 3 x 3.75 kg/ha May, sampling 28/06",10.83 mg/kg
same,Fosetyl-Al residue,"[3]; fosetyl-Al 3 x 3.75 kg/ha May, sampling 28/08",0.11 mg/kg
same,Fosetyl-Al residue,"[3]; fosetyl-Al 3 x 3.75 kg/ha May, sampling 30/05",0.1 mg/kg
same,Fosetyl-Al residue,"[3]; fosetyl-Al 6 x 2 kg/ha May-June, sampling 08/06",10.64 mg/kg
same,Fosetyl-Al residue,"[3]; fosetyl-Al 6 x 2 kg/ha May-June, sampling 10/07",2.86 mg/kg
same,Fosetyl-Al residue,"[3]; fosetyl-Al 6 x 2 kg/ha May-June, sampling 19/06",4.52 mg/kg
same,Fosetyl-Al residue,"[3]; fosetyl-Al 6 x 2 kg/ha May-June, sampling 28/06",20.56 mg/kg
same,Fosetyl-Al residue,"[3]; fosetyl-Al 6 x 2 kg/ha May-June, sampling 28/08",0.18 mg/kg
same,Fosetyl-Al residue,"[3]; fosetyl-Al 6 x 2 kg/ha May-June, sampling 30/05",0.1 mg/kg
same,phytotoxicity,[4],absence of phytotoxicity

# Source: patent US8404279B2, “Method for improving the bud quality of a plant” (Bayer CropScience AG, priority 2007, dated 2013)
